{"source": "patent US11524966B1", "about": "(Valo Early Discovery, Inc., priority 2017, dated 2022)", "target": "T1, USP25 (USP25-His6, Boston Biochem E-546) (Homo sapiens, UniProt Q9UHP3)", "T1 construct": "His6; purchased Boston Biochem E-546", "T1 sequence (Q9UHP3 1-1055)": "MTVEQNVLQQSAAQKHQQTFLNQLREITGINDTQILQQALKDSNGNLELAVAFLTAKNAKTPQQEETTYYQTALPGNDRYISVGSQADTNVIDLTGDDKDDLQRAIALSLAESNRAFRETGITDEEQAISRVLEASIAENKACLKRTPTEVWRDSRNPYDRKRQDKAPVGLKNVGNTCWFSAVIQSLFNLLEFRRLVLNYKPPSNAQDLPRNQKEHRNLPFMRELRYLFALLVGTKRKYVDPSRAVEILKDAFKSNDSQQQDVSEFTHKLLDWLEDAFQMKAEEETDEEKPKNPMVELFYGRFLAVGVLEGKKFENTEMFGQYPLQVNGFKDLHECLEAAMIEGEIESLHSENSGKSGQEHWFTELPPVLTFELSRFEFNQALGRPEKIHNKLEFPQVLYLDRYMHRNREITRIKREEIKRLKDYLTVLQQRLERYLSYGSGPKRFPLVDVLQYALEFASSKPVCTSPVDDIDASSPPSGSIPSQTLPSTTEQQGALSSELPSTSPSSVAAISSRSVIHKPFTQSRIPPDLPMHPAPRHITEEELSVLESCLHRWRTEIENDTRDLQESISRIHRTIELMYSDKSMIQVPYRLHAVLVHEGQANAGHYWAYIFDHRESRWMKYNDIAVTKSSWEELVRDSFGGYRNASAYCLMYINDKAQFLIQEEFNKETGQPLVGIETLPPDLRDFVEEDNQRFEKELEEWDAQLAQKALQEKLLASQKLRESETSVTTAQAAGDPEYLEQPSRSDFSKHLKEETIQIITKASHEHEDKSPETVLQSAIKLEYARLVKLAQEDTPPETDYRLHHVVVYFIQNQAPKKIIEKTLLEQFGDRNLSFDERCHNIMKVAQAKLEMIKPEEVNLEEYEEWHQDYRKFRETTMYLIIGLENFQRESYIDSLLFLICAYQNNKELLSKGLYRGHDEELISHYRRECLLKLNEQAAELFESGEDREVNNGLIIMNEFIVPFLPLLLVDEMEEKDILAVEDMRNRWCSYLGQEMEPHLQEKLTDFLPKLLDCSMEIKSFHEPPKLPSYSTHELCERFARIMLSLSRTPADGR", "test": "Ubiquitin-Rhodamine 110 Assay for USP25 Activity, Example A-2", "assay_type": "biochemical", "settings": "Ubiquitin-Rhodamine 110 assay, Example A-2; read-out: USP25 A-2 IC50 range", "outline": "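Read-out: Rh110 fluorescence (ex 485, em 535 nm) after 45 min RT turnover of 25 nM Ub-Rh110 by 75 pM USP25-His6, quenched with 10 mM citric acid. Compounds at 25 μM–1.3 nM, preincubated 30 min with enzyme. IC50 from 4-parameter logistic fit.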", "note": "pIC50: −log10 of the molar value.", "data": [{"smiles": "Cc1cnc2c(N)c(C(=O)N[C@@H]3CCc4cc(N5CCCNCC5)ccc4C3)sc2n1", "note": "[Example 452, (R)-N-(6-(1,4-diazepan-1-yl)-1,2,3,4-tetrahydronaphthalen-2-yl)-7-amino-3-methylthieno[2,3-b]pyrazine-6-carboxamide]", "values": [{"measurement": "pIC50", "value": "< 5.70"}]}, {"smiles": "Cc1ccc2c(N)c(C(=O)N[C@H]3CCc4nc(N5C[C@@H](N)[C@]6(CCCO6)C5)ccc4C3)sc2n1", "note": "[Example 391, 3-amino-N-[(6S)-2-[(5S,9R)-9-amino-1-oxa-7-azaspiro[4.4]nonan-7-yl]-5,6,7,8-tetrahydroquinolin-6-yl]-6-methylthieno[2,3-b]pyridine-2-carboxamide]", "values": [{"measurement": "pIC50", "value": "5.70 to 6.70"}]}, {"smiles": "O=C(N[C@H]1COc2cc(N3CCNCC3)ccc2C1)c1cnn2cc(Cl)ccc12", "note": "[Example 462, (R)-6-chloro-N-(7-(piperazin-1-yl)chroman-3-yl)pyrazolo[1,5-a]pyridine-3-carboxamide]", "values": [{"measurement": "pIC50", "value": "< 5.70"}]}, {"smiles": "Cc1cc(C)c2c(N)c(C(=O)N[C@H]3CCc4nc(N5CC6CCC(C5)N6)ccc4C3)sc2n1", "note": "[Example 354, 3-amino-N-[(6S)-2-{3,8-diazabicyclo[3.2.1]octan-3-yl}-5,6,7,8-tetrahydroquinolin-6-yl]-4,6-dimethylthieno[2,3-b]pyridine-2-carboxamide]", "values": [{"measurement": "pIC50", "value": "5.70 to 6.70"}]}, {"smiles": "Cc1ccc2c(N)c(C(=O)N[C@H]3COc4cc(N5CCN[C@H](C(F)(F)F)C5)ccc4C3)sc2n1", "note": "[Example 3-12, 3-amino-6-methyl-N-((R)-7-((S)-3-(trifluoromethyl)piperazin-1-yl)chroman-3-yl)thieno[2,3-b]pyridine-2-carboxamide]", "values": [{"measurement": "pIC50", "value": "5.70 to 6.70"}]}, {"smiles": "Cc1ccc2c(N)c(C(=O)N[C@H]3COc4c(cc(F)c(N5CCNCC5)c4F)C3)sc2n1", "note": "(single isomer, unassigned) [Example 3-17]", "values": [{"measurement": "pIC50", "value": "6.70 to 7.30"}]}, {"smiles": "Cc1ccc2c(N)c(C(=O)N[C@H]3COc4cc(N5CC[C@@]6(CCCNC6)C5)ccc4C3)sc2n1", "note": "[Example 3-14, N-((R)-7-((R)-2,7-diazaspiro[4.5]decan-2-yl)chroman-3-yl)-3-amino-6-methylthieno[2,3-b]pyridine-2-carboxamide]", "values": [{"measurement": "pIC50", "value": "6.70 to 7.30"}]}, {"smiles": "Cc1ccc2c(N)c(C(=O)N[C@H]3COc4cc(N5CC[C@@H](C(=O)O)C5)ccc4C3)sc2n1", "note": "[Example 6-2, (R)-1-((R)-3-(3-amino-6-methylthieno[2,3-b]pyridine-2-carboxamido)chroman-7-yl)pyrrolidine-3-carboxylic acid]", "values": [{"measurement": "pIC50", "value": "< 5.70"}]}, {"smiles": "Cc1ccc2c(N)c(C(=O)N[C@H]3COc4cc(N5CCS(=O)(=O)CC5)ccc4C3)sc2n1", "note": "[Example 5-2, (R)-3-amino-N-(7-(1,1-dioxidothiomorpholino)chroman-3-yl)-6-methylthieno[2,3-b]pyridine-2-carboxamide]", "values": [{"measurement": "pIC50", "value": "6.70 to 7.30"}]}, {"smiles": "Cc1ccc2c(N)c(C(=O)N[C@H]3COc4cc(N5CCC(O)CC5)ccc4C3)sc2n1", "note": "[Example 7-1, (R)-3-amino-N-(7-(4-hydroxypiperidin-1-yl)chroman-3-yl)-6-methylthieno[2,3-b]pyridine-2-carboxamide]", "values": [{"measurement": "pIC50", "value": "5.70 to 6.70"}]}, {"smiles": "Cc1ccc2c(N)c(C(=O)N[C@H]3COc4cc(N5CC[C@H](C(=O)O)C5)ccc4C3)sc2n1", "note": "[Example 6-3, (S)-1-((R)-3-(3-amino-6-methylthieno[2,3-b]pyridine-2-carboxamido)chroman-7-yl)pyrrolidine-3-carboxylic acid]", "values": [{"measurement": "pIC50", "value": "< 5.70"}]}, {"smiles": "CCn1ccc2cc(C(=O)N[C@H]3CCc4nc(N5C[C@H](OC)[C@@H](N)C5)ccc4C3)cnc21", "note": "[Example 353, N-[(6S)-2-[(3S,4S)-3-amino-4-methoxypyrrolidin-1-yl]-5,6,7,8-tetrahydroquinolin-6-yl]-1-ethyl-1H-pyrrolo[2,3-b]pyridine-5-carboxamide]", "values": [{"measurement": "pIC50", "value": "< 5.70"}]}, {"smiles": "Cc1cccc2c(C(=O)N[C@H]3COc4cc(N5CCNCC5)ccc4C3)cnn12", "note": "[Example 458, (R)-7-methyl-N-(7-(piperazin-1-yl)chroman-3-yl)pyrazolo[1,5-a]pyridine-3-carboxamide]", "values": [{"measurement": "pIC50", "value": "5.70 to 6.70"}]}]}
